Measurements taken from patent US20020115728A1, “Compositions and methods for treating cardiovascular disorders” (priority 2000, published 2002).

System: plasma lipoproteins of apoE−/− mice
Assay: Lipids and antioxidants in lipoprotein fractions (size exclusion FPLC of pooled plasma)
Assay type: in vivo
Parameters: VLDL C / VLDL C18:2 / VLDL -TOH / VLDL Total CoQ / LDL C / LDL C18:2 / LDL -TOH / LDL Total CoQ / HDL C / HDL C18:2 / HDL -TOH / HDL Total CoQ: unit not given here
Details: 24 weeks
Description: Plasma was obtained from control and probucol mice and aliquots frozen for subsequent determination of lipids. Separate aliquots were acidified with metaphosphoric acid (5%) to stabilize vitamin C prior to freezing and storage at −80° C. The remainder was pooled appropriately and used for ex vivo oxidation initiated by the peroxyl radical generator AAPH and lipoprotein separation by FPLC with UV280nm detection, as described in J Lipid Res. 1999;40:1104-1112.
Two consecutive separations each employing 300 μL undiluted plasma were carried out. The corresponding eluents from both injections were collected, pooled according to fractions corresponding to very low-density lipoprotein (VLDL), LDL, and HDL plus mouse serum albumin (see FIG. 3) and then extracted and analysed for lipids and antioxidants.

SMILES: CC(C)(Sc1cc(C(C)(C)C)c(O)c(C(C)(C)C)c1)Sc1cc(C(C)(C)C)c(O)c(C(C)(C)C)c1 [Probucol, probucol]
- HDL -TOH (HDL fraction, 1% probucol): 1.4
- HDL C (HDL fraction, 1% probucol): 0.12
- HDL C18:2 (HDL fraction, 1% probucol): 531
- HDL C20:4 (HDL fraction, 1% probucol): 24.0
- HDL Total CoQ (HDL fraction, 1% probucol): 0.1
- LDL -TOH (LDL fraction, 1% probucol): 7.8
- LDL C (LDL fraction, 1% probucol): 0.96
- LDL C18:2 (LDL fraction, 1% probucol): 388
- LDL C20:4 (LDL fraction, 1% probucol): 50.4
- LDL Total CoQ (LDL fraction, 1% probucol): 0.4
- VLDL -TOH (VLDL fraction, 1% probucol): 0.56
- VLDL C18:2 (VLDL fraction, 1% probucol): 340
- VLDL C20:4 (VLDL fraction, 1% probucol): 17.5
- VLDL Total CoQ (VLDL fraction, 1% probucol): 0.1
- VLDL C (VLDL fraction, pooled plasma, 1% w/w probucol): 0.65
- content of C in VLDL, % of the control value (VLDL of pooled plasma, 1% probucol): 25%
